Data published in paper PMC12655252, “Synthesis of 1H-Pyrrolo[3,2-g]isoquinoline Derivatives as Ligands Targeting Haspin Kinase” (Molecules, 2025).

Columns and labels:
Haspin = conditions: Figure 2; cited from earlier work
CDK5/p25 = target: T1, CDK5/p25 (Homo sapiens, UniProt Q00535); assay: ADP-Glo in vitro kinase inhibition assay, CDK5/p25; assay type: biochemical; conditions: 10 μM ATP, read-out: CDK5 % residual activity; for remaining activity at 1 µM: 1 μM compound; for remaining activity at 10 µM: 10 μM compound
T1 construct: made in house; host or cells: bacteria
T1 sequence (Q00535 whole entry): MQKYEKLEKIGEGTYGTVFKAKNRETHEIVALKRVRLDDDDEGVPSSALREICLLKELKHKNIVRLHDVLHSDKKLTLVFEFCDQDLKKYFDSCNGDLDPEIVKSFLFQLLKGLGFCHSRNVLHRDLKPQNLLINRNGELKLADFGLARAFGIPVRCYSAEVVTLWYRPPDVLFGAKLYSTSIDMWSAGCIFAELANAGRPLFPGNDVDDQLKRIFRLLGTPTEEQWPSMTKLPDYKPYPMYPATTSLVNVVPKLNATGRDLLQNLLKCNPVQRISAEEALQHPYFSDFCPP
T1 sequence (Q15078 99-307 partner limits assumed): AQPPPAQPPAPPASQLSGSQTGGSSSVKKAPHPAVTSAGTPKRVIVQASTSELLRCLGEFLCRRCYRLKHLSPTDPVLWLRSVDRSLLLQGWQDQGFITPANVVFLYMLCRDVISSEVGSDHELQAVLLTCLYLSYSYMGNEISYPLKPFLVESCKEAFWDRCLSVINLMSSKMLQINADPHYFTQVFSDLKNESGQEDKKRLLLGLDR
Method: (§1) We previouly reported that substitution at the 3-position with halogen atoms or pyridinyl or formyl groups was compatible with high potency toward Haspin kinase. To check if the current structural changes were in line with potent Haspin inhibition and high selectivity, enabling consideration of these compounds as possible targeting ligands for the PROTAC approach, compounds 2, 3, 8–11, and 15–17 were evaluated toward a panel of eight protein kinases, including Haspin, as well as other kinases known to be frequently cross-inhibited (CLK1, DYRK1A, CDK9/Cyclin T, GSK-3β, CK1ε, CDK5/p25, and Pim1) (Table 1). The percentage of residual kinase activity was evaluated at 10 μM and 1 μM compound concentrations. […].
(§2) Kinase inhibition was tested in 384-well plates using the ADP-GloTM assay kit (Promega, Madison, WI, USA) according to the procedure recommended by the manufacturer. Reactions were set up in a final volume of 6 μL in an appropriate kinase buffer (10 mM MgCl2, 1 mM EGTA, 1 mM DTT, 25 mM Tris-HCl pH 7.5, 50 μg/mL heparin) with either protein or peptide as the substrate in the presence of 10 μM ATP. To stop the kinase reaction, 6 μL of ADP-GloTM Kinase Reagent was added after 30 min at 30 °C. Then, after 50 min of incubation at room temperature (RT), 12 μL of Kinase Detection Reagent was added. The transmitted signal was measured after 1 h at RT using the Envision (Perkin Elmer, Waltham, MA, USA) microplate luminometer and expressed in relative light units (RLU). In order to determine the half-maximal inhibitory concentration (IC50), all assays were performed in duplicate in the absence or presence of increasing doses of the tested compounds. GraphPad Prism10 software (GraphPad Software, San Diego, CA, USA) was used to fit dose–response curves and to determine the IC50 values. Kinase activities are given as percentages of maximal activity, i.e., measured in the absence of inhibitor. Peptide substrates were obtained from Proteogenix (Schiltigheim, France).
(§3) The following protein kinases were analyzed in this study: CDK5/p25 (human, vector pGEX-2T, expressed in bacteria; kindly provided by Dr. J. H. Wang) was assayed with 0.8 μg/μL of histone H1 as substrate; HsCDK9/CyclinT (NP_001252/KAI4065659, cloned in pTEFb vector, expressed by baculovirus in Sf9 insect cells) were assayed with 0.27 μg/μL of the following peptide: […], as substrate; HsCK1ε (NP_001885, cloned in pFAST-BAC vector, expressed in Sf9 insect cells) was assayed with 0.022 μg/μL of the following peptide: […]pAYSITA (“Sp” stands for phosphorylated serine) as CK1-specific substrate; HsGSK3β (AAH12760, cloned in pFAST-BAC, expressed by baculovirus in Sf9 insect cells) were assayed with 0.010 μg/μL of GS-1 peptide, a GSK-3-selective substrate ([…]pEDEEE); HsHaspin-kd (NP_114171, kinase domain, amino acids 470–798 cloned in pGEX-6P-3, expressed in bacteria) was assayed with 0.007 μg/μL of histone H3 (1–21) peptide ([…]) as substrate; Pim-1 (KAI4018123, expressed in bacteria) was assayed with 0.8 μg/μL of histone H1 as substrate; HsCLK1 (NP_004062, cloned in pFAST-BAC, expressed in Sf9 insect cells) was assayed with 0.027 μg/μL of the peptide: […]; RnDYRK1A-kd (Rattus norvegicus, amino acids 1–499, pGEX-2TK, expressed in bacteria, gift from Dr. W. Becker, Aachen, Germany) was tested in the presence of 0.033 μg/μL of the peptide: […].

RnDYRK1A-kd = target: T2, RnDYRK1A-kd (Rattus norvegicus, UniProt Q63470); assay: ADP-Glo in vitro kinase inhibition assay, DYRK1A; assay type: biochemical; conditions: 10 μM ATP, read-out: DYRK1A % residual activity; for remaining activity at 1 µM: 1 μM compound; for remaining activity at 10 µM: 10 μM compound
T2 construct: Rattus norvegicus, amino acids 1–499, pGEX-2TK; made in house; host or cells: bacteria
Method: as §1, §2, §3

HsCDK9/CyclinT = target: T3, HsCDK9/CyclinT (Homo sapiens, UniProt P50750); assay: ADP-Glo in vitro kinase inhibition assay, CDK9/CyclinT; assay type: biochemical; conditions: 10 μM ATP, read-out: CDK9 % residual activity; for remaining activity at 1 µM: 1 μM compound; for remaining activity at 10 µM: 10 μM compound
T3 construct: made in house; host or cells: Sf9 insect cells (baculovirus)
T3 sequence (P50750 whole entry): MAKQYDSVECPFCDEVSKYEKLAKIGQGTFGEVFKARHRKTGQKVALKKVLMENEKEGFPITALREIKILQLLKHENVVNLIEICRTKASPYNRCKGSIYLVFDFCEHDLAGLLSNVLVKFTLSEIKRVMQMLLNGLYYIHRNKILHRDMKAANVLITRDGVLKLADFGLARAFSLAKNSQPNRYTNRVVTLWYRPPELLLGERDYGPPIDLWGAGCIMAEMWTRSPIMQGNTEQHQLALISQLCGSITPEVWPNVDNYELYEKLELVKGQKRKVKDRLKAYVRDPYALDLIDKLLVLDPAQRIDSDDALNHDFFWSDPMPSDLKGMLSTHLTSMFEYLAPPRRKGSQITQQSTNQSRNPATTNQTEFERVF
T3 sequence (O60563 whole entry partner): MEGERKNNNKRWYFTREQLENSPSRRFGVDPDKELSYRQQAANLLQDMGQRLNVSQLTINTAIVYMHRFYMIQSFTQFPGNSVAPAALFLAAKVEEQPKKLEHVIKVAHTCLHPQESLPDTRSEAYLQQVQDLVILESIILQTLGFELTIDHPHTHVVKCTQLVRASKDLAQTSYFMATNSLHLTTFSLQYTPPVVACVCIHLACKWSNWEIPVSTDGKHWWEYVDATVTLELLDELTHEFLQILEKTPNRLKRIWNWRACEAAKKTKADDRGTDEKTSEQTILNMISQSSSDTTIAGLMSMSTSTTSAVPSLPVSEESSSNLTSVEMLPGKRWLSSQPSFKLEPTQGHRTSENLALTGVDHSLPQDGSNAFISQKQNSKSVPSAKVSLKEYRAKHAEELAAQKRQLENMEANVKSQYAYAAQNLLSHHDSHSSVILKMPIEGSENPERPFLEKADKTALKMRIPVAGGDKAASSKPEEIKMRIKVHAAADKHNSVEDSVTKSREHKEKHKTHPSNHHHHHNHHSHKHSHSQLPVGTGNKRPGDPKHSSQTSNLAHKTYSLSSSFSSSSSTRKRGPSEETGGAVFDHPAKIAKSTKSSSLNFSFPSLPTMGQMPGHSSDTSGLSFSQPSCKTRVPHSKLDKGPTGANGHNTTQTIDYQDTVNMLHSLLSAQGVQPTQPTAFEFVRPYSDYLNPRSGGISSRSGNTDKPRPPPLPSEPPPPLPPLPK
Method: as §1, §2, §3

HsCK1ε = target: T4, HsCK1ε (Homo sapiens, UniProt P49674); assay: ADP-Glo in vitro kinase inhibition assay, CK1ε; assay type: biochemical; conditions: 10 μM ATP, read-out: CK1 % residual activity; for remaining activity at 1 µM: 1 μM compound; for remaining activity at 10 µM: 10 μM compound
T4 construct: made in house; host or cells: Sf9 insect cells
T4 sequence (P49674 whole entry): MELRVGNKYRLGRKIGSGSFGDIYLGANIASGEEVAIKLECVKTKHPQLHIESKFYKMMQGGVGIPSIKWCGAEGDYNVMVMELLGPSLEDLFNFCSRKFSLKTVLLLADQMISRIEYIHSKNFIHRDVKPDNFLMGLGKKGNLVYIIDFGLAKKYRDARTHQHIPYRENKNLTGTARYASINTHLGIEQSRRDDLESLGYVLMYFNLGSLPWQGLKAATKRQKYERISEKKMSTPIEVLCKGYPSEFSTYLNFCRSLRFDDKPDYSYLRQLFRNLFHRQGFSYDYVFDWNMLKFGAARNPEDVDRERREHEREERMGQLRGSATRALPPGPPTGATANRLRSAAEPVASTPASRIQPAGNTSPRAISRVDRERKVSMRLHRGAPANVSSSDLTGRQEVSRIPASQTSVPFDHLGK
Method: as §1, §2, §3

HsCLK1 = target: T5, HsCLK1 (Homo sapiens, UniProt P49759); assay: ADP-Glo in vitro kinase inhibition assay, CLK1; assay type: biochemical; conditions: 10 μM ATP, read-out: CLK1 % residual activity; for remaining activity at 1 µM: 1 μM compound; for remaining activity at 10 µM: 10 μM compound
T5 construct: made in house; host or cells: Sf9 insect cells
T5 sequence (P49759 whole entry): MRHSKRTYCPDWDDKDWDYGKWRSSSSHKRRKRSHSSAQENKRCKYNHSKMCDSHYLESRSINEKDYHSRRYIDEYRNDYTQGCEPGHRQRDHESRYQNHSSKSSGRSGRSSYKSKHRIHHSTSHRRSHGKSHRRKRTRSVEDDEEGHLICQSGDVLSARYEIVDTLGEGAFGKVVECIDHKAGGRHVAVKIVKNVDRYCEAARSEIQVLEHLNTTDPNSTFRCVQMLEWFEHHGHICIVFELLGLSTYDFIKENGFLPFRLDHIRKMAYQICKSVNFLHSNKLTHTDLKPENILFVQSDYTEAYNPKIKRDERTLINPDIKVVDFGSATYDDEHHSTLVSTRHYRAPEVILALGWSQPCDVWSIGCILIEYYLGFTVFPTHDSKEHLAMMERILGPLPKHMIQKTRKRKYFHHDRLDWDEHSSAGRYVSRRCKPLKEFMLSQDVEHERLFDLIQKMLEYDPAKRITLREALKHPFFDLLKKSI
Method: as §1, §2, §3

HsGSK3β = target: T6, HsGSK3β (Homo sapiens, UniProt P49841); assay: ADP-Glo in vitro kinase inhibition assay, GSK3β; assay type: biochemical; conditions: 10 μM ATP, read-out: GSK3 % residual activity; for remaining activity at 1 µM: 1 μM compound; for remaining activity at 10 µM: 10 μM compound
T6 construct: made in house; host or cells: Sf9 insect cells (baculovirus)
T6 sequence (P49841 whole entry): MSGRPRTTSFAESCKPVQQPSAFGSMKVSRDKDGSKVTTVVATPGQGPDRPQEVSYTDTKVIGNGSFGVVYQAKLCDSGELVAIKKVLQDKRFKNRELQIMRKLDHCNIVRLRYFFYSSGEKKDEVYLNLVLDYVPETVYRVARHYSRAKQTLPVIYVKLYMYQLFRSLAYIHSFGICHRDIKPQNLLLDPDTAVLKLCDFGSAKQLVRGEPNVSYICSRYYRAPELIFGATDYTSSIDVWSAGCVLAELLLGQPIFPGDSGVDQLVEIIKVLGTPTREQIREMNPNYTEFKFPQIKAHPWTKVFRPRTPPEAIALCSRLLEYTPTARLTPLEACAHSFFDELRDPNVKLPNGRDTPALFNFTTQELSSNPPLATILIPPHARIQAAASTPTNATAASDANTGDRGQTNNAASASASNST
Method: as §1, §2, §3

HsHaspin-kd = target: T7, HsHaspin-kd (Homo sapiens, UniProt Q8TF76); assay: ADP-Glo in vitro kinase inhibition assay, Haspin; assay type: biochemical; conditions: 10 μM ATP, duplicate; for remaining activity at 1 µM: 1 μM compound; for remaining activity at 1 µM / remaining activity at 10 µM: read-out: Haspin % residual activity; for remaining activity at 10 µM: 10 μM compound
T7 construct: kinase domain, amino acids 470–798 cloned in pGEX-6P-3; made in house; host or cells: bacteria
T7 sequence (Q8TF76 470-798): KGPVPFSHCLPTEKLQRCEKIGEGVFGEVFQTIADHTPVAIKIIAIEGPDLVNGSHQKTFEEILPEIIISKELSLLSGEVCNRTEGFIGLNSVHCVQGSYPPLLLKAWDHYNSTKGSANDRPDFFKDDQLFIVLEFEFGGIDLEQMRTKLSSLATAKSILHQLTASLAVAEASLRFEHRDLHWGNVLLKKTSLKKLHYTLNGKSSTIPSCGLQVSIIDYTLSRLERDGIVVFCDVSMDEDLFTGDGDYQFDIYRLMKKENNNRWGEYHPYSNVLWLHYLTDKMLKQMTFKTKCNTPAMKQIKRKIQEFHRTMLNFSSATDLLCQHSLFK
Method: as §1, §2, §3

Pim-1 = target: T8, Pim-1 (Homo sapiens, UniProt P11309); assay: ADP-Glo in vitro kinase inhibition assay, Pim-1; assay type: biochemical; conditions: 10 μM ATP, read-out: PIM1 % residual activity; for remaining activity at 1 µM: 1 μM compound; for remaining activity at 10 µM: 10 μM compound
T8 construct: made in house; host or cells: bacteria
T8 sequence (P11309 whole entry): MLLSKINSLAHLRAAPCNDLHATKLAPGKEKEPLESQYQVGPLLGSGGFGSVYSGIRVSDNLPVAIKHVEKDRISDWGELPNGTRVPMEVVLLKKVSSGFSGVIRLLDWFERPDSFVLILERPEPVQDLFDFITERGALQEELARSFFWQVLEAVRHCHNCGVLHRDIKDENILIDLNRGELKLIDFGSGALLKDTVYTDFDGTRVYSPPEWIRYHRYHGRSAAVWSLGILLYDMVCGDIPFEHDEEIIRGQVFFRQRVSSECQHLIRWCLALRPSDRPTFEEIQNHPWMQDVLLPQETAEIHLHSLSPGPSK
Method: as §1, §2, §3

Row | Compound | Ki (Haspin) [nM] | IC50 (Haspin) [nM] | remaining activity at 1 µM (CDK5/p25) [%] | remaining activity at 10 µM (CDK5/p25) [%] | remaining activity at 1 µM (RnDYRK1A-kd) [%] | remaining activity at 10 µM (RnDYRK1A-kd) [%] | remaining activity at 1 µM (HsCDK9/CyclinT) [%] | remaining activity at 10 µM (HsCDK9/CyclinT) [%] | remaining activity at 1 µM (HsCK1ε) [%] | remaining activity at 10 µM (HsCK1ε) [%] | remaining activity at 1 µM (HsCLK1) [%] | remaining activity at 10 µM (HsCLK1) [%] | remaining activity at 1 µM (HsGSK3β) [%] | remaining activity at 10 µM (HsGSK3β) [%] | remaining activity at 1 µM (HsHaspin-kd) [%] | IC50 (HsHaspin-kd) [nM] | remaining activity at 10 µM (HsHaspin-kd) [%] | remaining activity at 1 µM (Pim-1) [%] | remaining activity at 10 µM (Pim-1) [%]
1 | C#Cc1cn([C@@H]2S[C@H](CN=[N+]=[N-])[C@@H](O)[C@H]2O)c2ncnc(N)c12 [LJ-4827] | 0.465 |  |  |  |  |  |  |  |  |  |  |  |  |  |  |  |  |  | 
2 | Cc1ccc(NC(=O)c2ccc3c(c2)c(CNCCN2CCNCC2)cn3C)cc1C [Compound A] |  | 0.01 |  |  |  |  |  |  |  |  |  |  |  |  |  |  |  |  | 
3 | Clc1cc(-c2c[nH]c3cc4cnccc4cc23)ccn1 [Compound 2, 3-(2-Chloro-pyridin-4-yl)-1H-pyrrolo[3,2-g]isoquinoline] |  |  | 100 | 100 | 20 | 16 | 81 | 56 | 79 | 54 | 56 | 27 | 76 | 81 | 9 | 10.1 | 8 | 20 | 14
4 | harmol |  | 770 |  |  |  |  |  |  |  |  |  |  |  |  |  |  |  |  | 
7 | COc1ccc2c(c1)[nH]c1c(C)nccc12 [Harmine, harmine] |  | 590 |  |  |  |  |  |  |  |  |  |  |  |  |  |  |  |  | 
8 | COc1ccc2nc3ccc(Cl)cc3c(SCCCN)c2c1 [LDN-209929] |  | 55 |  |  |  |  |  |  |  |  |  |  |  |  |  |  |  |  | 
9 | CC(C)(C)OC(=O)CCc1c[nH]c2cc3cnccc3cc12 [Compound 11, tert-Butyl 3-(1H-Pyrrolo[3,2-g]isoquinolin-3-yl)propanoate] |  |  | 100 | 100 | 58 | 31 | 100 | 86 | 98 | 81 | 98 | 81 | 83 | 94 | 70 |  | 52 | 70 | 60
10 | CC(C)(C)OC(=O)/C=C/c1c[nH]c2cc3cnccc3cc12 [Compound 9, tert-Butyl (E)-3-(1H-Pyrrolo[3,2-g]isoquinolin-3-yl)prop-2-enoate] |  |  | 100 | 100 | 51 | 28 | 79 | 32 | 92 | 87 | 86 | 48 | 80 | 80 | 30 | 392 | 12 | 42 | 21
11 | COC(=O)CCc1c[nH]c2cc3cnccc3cc12 [Compound 10, Methyl 3-(1H-Pyrrolo[3,2-g]isoquinolin-3-yl)propanoate] |  |  | 100 | 100 | 72 | 32 | 90 | 72 | 100 | 97 | 91 | 60 | 100 | 99 | 45 | 82.1 | 10 | 72 | 52
